Laboratory results: patent publication US9796711B2, “Substituted pyrazolo[3,4-b]pyridin-6-carboxylic acids and method of use” (AbbVie S.àr.l., priority 2015, dated 2017)
pEC50: −log10 of the molar value.

What was measured:
ΔF508-CFTR [1] = biological target: T1, ΔF508-CFTR (Homo sapiens, UniProt P13569, DEL508-508); assay: CFTR cell surface levels using HRP-tagged ΔF508-CFTR expressing CFBE cells, in the presence of a co-corrector; format: cell-based; settings: HRP-tagged ΔF508-CFTR expressing CFBE cells, in the presence of 3 μM co-corrector; for pEC50: read-out: EC50
T1 construct: host or cells: CFBE41o-, doxycycline-inducible
T1 sequence (P13569 with tags, fused parts or gaps DEL508-508): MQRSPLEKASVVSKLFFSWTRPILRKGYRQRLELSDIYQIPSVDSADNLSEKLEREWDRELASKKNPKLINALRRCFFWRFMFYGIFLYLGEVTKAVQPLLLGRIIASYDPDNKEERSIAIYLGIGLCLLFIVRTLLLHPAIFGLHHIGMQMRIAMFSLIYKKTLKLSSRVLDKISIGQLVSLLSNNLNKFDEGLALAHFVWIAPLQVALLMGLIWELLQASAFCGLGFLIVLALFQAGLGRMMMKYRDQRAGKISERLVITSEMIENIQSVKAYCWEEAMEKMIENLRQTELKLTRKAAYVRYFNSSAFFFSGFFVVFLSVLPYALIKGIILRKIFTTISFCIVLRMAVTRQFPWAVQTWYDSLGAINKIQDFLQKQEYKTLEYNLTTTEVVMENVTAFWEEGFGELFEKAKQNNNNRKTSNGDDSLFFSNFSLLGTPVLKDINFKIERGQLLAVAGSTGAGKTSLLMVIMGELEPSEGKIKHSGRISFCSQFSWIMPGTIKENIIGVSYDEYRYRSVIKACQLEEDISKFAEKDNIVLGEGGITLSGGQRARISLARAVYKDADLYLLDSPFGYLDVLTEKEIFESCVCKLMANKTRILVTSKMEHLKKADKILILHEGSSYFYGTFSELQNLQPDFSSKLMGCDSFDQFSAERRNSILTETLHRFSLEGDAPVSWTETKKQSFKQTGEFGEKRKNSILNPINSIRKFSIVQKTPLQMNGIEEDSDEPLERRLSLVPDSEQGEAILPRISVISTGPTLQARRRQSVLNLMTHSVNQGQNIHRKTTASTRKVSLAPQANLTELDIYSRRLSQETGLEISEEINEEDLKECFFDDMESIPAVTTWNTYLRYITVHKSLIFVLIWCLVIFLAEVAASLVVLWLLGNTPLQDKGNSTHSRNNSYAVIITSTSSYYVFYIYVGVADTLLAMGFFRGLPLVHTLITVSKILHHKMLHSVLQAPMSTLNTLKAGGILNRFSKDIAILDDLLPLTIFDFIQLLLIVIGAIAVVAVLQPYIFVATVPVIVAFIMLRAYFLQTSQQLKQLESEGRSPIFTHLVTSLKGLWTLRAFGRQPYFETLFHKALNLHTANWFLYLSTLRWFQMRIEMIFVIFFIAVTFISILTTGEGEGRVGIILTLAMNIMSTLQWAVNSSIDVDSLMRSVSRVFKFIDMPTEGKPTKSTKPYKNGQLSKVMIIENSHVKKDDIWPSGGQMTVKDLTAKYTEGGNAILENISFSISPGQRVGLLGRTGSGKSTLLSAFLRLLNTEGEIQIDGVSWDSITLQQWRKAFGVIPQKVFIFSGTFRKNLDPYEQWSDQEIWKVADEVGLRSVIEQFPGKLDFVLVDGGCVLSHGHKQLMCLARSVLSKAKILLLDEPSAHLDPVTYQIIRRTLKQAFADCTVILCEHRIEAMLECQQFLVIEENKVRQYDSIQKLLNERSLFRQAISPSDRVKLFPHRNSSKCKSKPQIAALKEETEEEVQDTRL
Summary of the method: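 Cells were seeded with 0.5 μg/mL doxycycline and held 68 h at 37 °C. Test compounds plus 3 μM co-corrector (final 0.1% DMSO) were then added for 20 h at 33 °C. Washed cells received HRP substrate, and luminescence was normalized between DMSO and 3 μM co-corrector controls.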

ΔF508-CFTR [2] = biological target: T1, ΔF508-CFTR; assay: CFTR cell surface levels using HRP-tagged ΔF508-CFTR expressing CFBE cells, intrinsic corrector capacity; format: cell-based; settings: for pEC50: read-out: EC50
Summary of the method: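 Here the cells express ΔF508-CFTR with horseradish peroxidase inserted in extracellular loop 4, so only rescued channel at the surface gives luminescent signal. Compounds act on their own, 20 h at the reduced temperature of 33 °C; values are percent activity relative to DMSO and a 3 μM corrector.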

[3] = HRP-tagged ΔF508-CFTR CFBE41o- cells, compounds alone (intrinsic corrector capacity), 20 hours at 33° C., positive control 3 μM corrector
[4] = HRP-tagged ΔF508-CFTR CFBE41o- cells, compounds alone (intrinsic corrector capacity), 20 hours at 33° C.
[5] = HRP-tagged ΔF508-CFTR expressing CFBE cells, intrinsic corrector capacity (no co-corrector), 33° C., 20 hours
[6] = HRP-tagged ΔF508-CFTR CFBE cells, compound alone (intrinsic corrector capacity), 20 hours at 33° C.

SMILES	% Activation (ΔF508-CFTR [1]) [%]	pEC50 (ΔF508-CFTR [1])	% Activation (ΔF508-CFTR [2]; [3]) [%]	pEC50 (ΔF508-CFTR [2]; [4])	% Activation (ΔF508-CFTR [2]; [5]) [%]	pEC50 (ΔF508-CFTR [2]; [5])	% Activation (ΔF508-CFTR [2]; [6]) [%]	pEC50 (ΔF508-CFTR [2]; [6])
CC(C)c1nn(-c2cc(F)cc(F)c2)c2nc(C(=O)O)cc(-c3ccc(N(C)C4CCOCC4)nc3)c12 [compound 246, 1-(3,5-difluorophenyl)-4-{6-[methyl(oxan-4-yl)amino]pyridin-3-yl}-3-(propan-2-yl)-1H-pyrazolo[3,4-b]pyridine-6-carboxylic acid]	457.57	6.33	212.75	6.33				
CC(C)c1nn(C2CCCCC2)c2nc(C(=O)O)cc(-c3ccn(C)c3)c12 [compound 351, 1-cyclohexyl-4-(1-methyl-1H-pyrrol-3-yl)-3-(propan-2-yl)-1H-pyrazolo[3,4-b]pyridine-6-carboxylic acid]	256.6	5.82	84.055	5.79				
Cc1nn(-c2ccccc2)c2nc(C(=O)O)cc(-c3ccc(NC4COC4)cc3)c12 [compound 112, 3-methyl-4-{4-[(oxetan-3-yl)amino]phenyl}-1-phenyl-1H-pyrazolo[3,4-b]pyridine-6-carboxylic acid]	378.1	5.62	200.55	5.61				
CC(C)c1nn(C2CCCCC2)c2nc(C(=O)O)cc(-c3cnc(N4CCC(C#N)CC4)nc3)c12 [compound 235, 4-[2-(4-cyanopiperidin-1-yl)pyrimidin-5-yl]-1-cyclohexyl-3-(propan-2-yl)-1H-pyrazolo[3,4-b]pyridine-6-carboxylic acid]	403.1	6.13	206.8	6.08				
O=C(O)c1cc(N2CCN3C[C@H](O)C[C@H]3C2)c2c(C3CCC3)nn(-c3ccccc3)c2n1 [compound 475, 3-cyclobutyl-4-[(7R,8aS)-7-hydroxyhexahydropyrrolo[1,2-a]pyrazin-2(1H)-yl]-1-phenyl-1H-pyrazolo[3,4-b]pyridine-6-carboxylic acid]	163.35	5.57			35.755	5.18		
Cc1cccc(-n2nc(C(C)C)c3c(N4CCC5(CC4)COC5)cc(C(=O)O)nc32)c1 [compound 202, 1-(3-methylphenyl)-4-(2-oxa-7-azaspiro[3.5]nonan-7-yl)-3-(propan-2-yl)-1H-pyrazolo[3,4-b]pyridine-6-carboxylic acid]	309.3	6.22	136.8	6.10				
O=C(O)c1cc(OCCN2CCC3(CC2)OCCO3)c2c(C3CCC3)nn(-c3ccccc3)c2n1 [compound 623, 3-cyclobutyl-4-[2-(1,4-dioxa-8-azaspiro[4.5]decan-8-yl)ethoxy]-1-phenyl-1H-pyrazolo[3,4-b]pyridine-6-carboxylic acid]	308.3	6.30			106.8	5.94		
CC(C)c1nn(-c2ccc(F)cc2)c2nc(C(=O)O)cc(N3CCN(CC4CCCN(C)C4)CC3)c12 (stereo not shown) [compound 791, 1-(4-fluorophenyl)-4-{4-[(1-methylpiperidin-3-yl)methyl]piperazin-1-yl}-3-(propan-2-yl)-1H-pyrazolo[3,4-b]pyridine-6-carboxylic acid]	307.5	5.78			79.95	5.78		
O=C(O)c1cc(OCCOC2COC2)c2c(C3CCC3)nn(-c3ccccc3)c2n1 [compound 483, 3-cyclobutyl-4-{2-[(oxetan-3-yl)oxy]ethoxy}-1-phenyl-1H-pyrazolo[3,4-b]pyridine-6-carboxylic acid]	267	6.44			142.4	6.05		
Cc1nn(-c2cccc(C(F)(F)F)c2)c2nc(C(=O)O)cc(-c3ccc(N4CCOCC4)cc3)c12 [compound 22, 3-methyl-4-[4-(morpholin-4-yl)phenyl]-1-[3-(trifluoromethyl)phenyl]-1H-pyrazolo[3,4-b]pyridine-6-carboxylic acid]	310.95	6.00	131.28	6.00				
O=C(O)c1cc(N2CCC(N3CCOCC3)CC2)c2c(C3CCC3)nn(-c3cccc(F)c3)c2n1 [compound 825, 3-cyclobutyl-1-(3-fluorophenyl)-4-[4-(morpholin-4-yl)piperidin-1-yl]-1H-pyrazolo[3,4-b]pyridine-6-carboxylic acid]	455.85	6.84			289	6.68		
Cc1nn(-c2ccccc2)c2nc(C(=O)O)cc(-c3ccc(NC4CCOCC4)cc3)c12 [compound 145, 3-methyl-4-{4-[(oxan-4-yl)amino]phenyl}-1-phenyl-1H-pyrazolo[3,4-b]pyridine-6-carboxylic acid]	368.6	6.07	190.2	5.84				
CC(C)c1nn(C2CCOC2)c2nc(C(=O)O)cc(-c3ccc(N4CCOCC4)cc3)c12 (stereo not shown) [compound 120, 4-[4-(morpholin-4-yl)phenyl]-1-(oxolan-3-yl)-3-(propan-2-yl)-1H-pyrazolo[3,4-b]pyridine-6-carboxylic acid]	231.45	5.50	70.235	5.48				
CCOC(=O)N1CCN(c2cc(C(=O)O)nc3c2c(C2CCC2)nn3-c2ccc(F)cc2)CC1 [compound 929, 3-cyclobutyl-4-[4-(ethoxycarbonyl)piperazin-1-yl]-1-(4-fluorophenyl)-1H-pyrazolo[3,4-b]pyridine-6-carboxylic acid]	560	7.08					474.3	6.74
CS(=O)(=O)N1CCN(c2cc(C(=O)O)nc3c2c(C2CCC2)nn3-c2ccccc2)CC1 [compound 523, 3-cyclobutyl-4-[4-(methanesulfonyl)piperazin-1-yl]-1-phenyl-1H-pyrazolo[3,4-b]pyridine-6-carboxylic acid]	320.1	6.20			136.2	5.55		
CC(C)(C)OC(=O)N1CCCC1c1nn(-c2ccccc2)c2nc(C(=O)O)cc(-c3ccc(N4CCOCC4)cc3)c12 (stereo not shown) [compound 76]	244.2	6.37	117.9	6.08				
N#CC1CCN(c2ccc(-c3cc(C(=O)O)nc4c3c(C3CCC3)nn4-c3ccnc(N4CCCC4)c3)cn2)CC1 [compound 413, 4-[6-(4-cyanopiperidin-1-yl)pyridin-3-yl]-3-cyclobutyl-1-[2-(pyrrolidin-1-yl)pyridin-4-yl]-1H-pyrazolo[3,4-b]pyridine-6-carboxylic acid]	392.2	6.47			216.65	6.28		
Cc1nn(-c2ccccc2)c2nc(C(=O)O)cc(-c3ccc(N4CCN(C(C)(C)C)CC4)cc3)c12 [compound 60, 4-[4-(4-tert-butylpiperazin-1-yl)phenyl]-3-methyl-1-phenyl-1H-pyrazolo[3,4-b]pyridine-6-carboxylic acid]	143.1	< 5.00	14.9	< 5.00				
CCC1(F)CN(c2cc(C(=O)O)nc3c2c(C2CCC2)nn3-c2ccccc2)C1 [compound 530, 3-cyclobutyl-4-(3-ethyl-3-fluoroazetidin-1-yl)-1-phenyl-1H-pyrazolo[3,4-b]pyridine-6-carboxylic acid]	254.15	6.27			90.17	6.14		
CCOCCN1CCN(C2CCN(c3cc(C(=O)O)nc4c3c(C(C)C)nn4-c3ccc(F)cc3)CC2)CC1 [compound 745, 4-{4-[4-(2-ethoxyethyl)piperazin-1-yl]piperidin-1-yl}-1-(4-fluorophenyl)-3-(propan-2-yl)-1H-pyrazolo[3,4-b]pyridine-6-carboxylic acid]	457.5	6.72			239.3	6.24		
COC1(C)CCN(c2cc(C(=O)O)nc3c2c(C(C)C)nn3-c2ccc(F)cc2)CC1 [compound 397, 1-(4-fluorophenyl)-4-(4-methoxy-4-methylpiperidin-1-yl)-3-(propan-2-yl)-1H-pyrazolo[3,4-b]pyridine-6-carboxylic acid]	217.3	6.52			73.11	6.19		
N#CC1CN(C2CCN(c3cc(C(=O)O)nc4c3c(C3CCC3)nn4-c3ccc(F)cc3)CC2)C1 [compound 847, 4-[4-(3-cyanoazetidin-1-yl)piperidin-1-yl]-3-cyclobutyl-1-(4-fluorophenyl)-1H-pyrazolo[3,4-b]pyridine-6-carboxylic acid]	503.8	6.54			279.1	6.27		
